# US12421210B2, “Fused bicyclic heterocycles as therapeutic agents” (NEW YORK UNIVERSITY, priority 2018, dated 2025)
# Molecular target: human NAMPT enzyme (His-hNAMPT) (Homo sapiens (Human), UniProt P43490)
# Test: NAMPT enzymatic inhibition assay (fluorescence, NADH product)
# Assay type: biochemical
# Settings: [BPS]; read-out: NAMPT IC50 (μM) [BPS]
# Chain of human NAMPT enzyme (His-hNAMPT) (P43490 whole entry): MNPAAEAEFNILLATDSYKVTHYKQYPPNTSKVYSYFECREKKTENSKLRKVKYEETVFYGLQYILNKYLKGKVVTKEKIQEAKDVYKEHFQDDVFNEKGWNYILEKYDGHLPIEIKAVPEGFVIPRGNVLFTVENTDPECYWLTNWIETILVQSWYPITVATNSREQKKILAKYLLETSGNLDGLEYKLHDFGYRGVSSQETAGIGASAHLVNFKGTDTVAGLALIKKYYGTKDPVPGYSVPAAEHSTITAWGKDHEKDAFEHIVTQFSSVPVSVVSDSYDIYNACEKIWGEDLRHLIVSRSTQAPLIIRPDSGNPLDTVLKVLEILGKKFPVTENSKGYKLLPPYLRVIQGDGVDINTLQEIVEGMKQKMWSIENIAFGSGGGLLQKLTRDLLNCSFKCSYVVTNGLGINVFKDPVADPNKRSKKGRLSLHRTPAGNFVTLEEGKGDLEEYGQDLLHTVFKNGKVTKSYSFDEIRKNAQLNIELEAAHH
row,IC50 [µM],SMILES
1,0.5 to 0.99,"O=C(NCC[C@@H]1[C@H]2CN(C(=O)NC3CCOCC3)C[C@@H]12)c1cc2ccncc2o1 [Example 59, N-(2-((1R,5S,6s)-3-((tetrahydro-2H-pyran-4-yl)carbamoyl)-3-azabicyclo[3.1.0]hexan-6-yl)ethyl)furo[2,3-c]pyridine-2-carboxamide]"
2,0.01 to 0.49,"CCN(CC)C(=O)N1C[C@@H]2[C@@H](CCNC(=O)c3cc4ccncc4o3)[C@@H]2C1 [Example 60, N-(2-((1R,5S,6s)-3-(diethylcarbamoyl)-3-azabicyclo[3.1.0]hexan-6-yl)ethyl)furo[2,3-c]pyridine-2-carboxamide]"
3,0.01 to 0.49,"O=C(NCC[C@@H]1[C@H]2CN(C(=O)OC3CCOCC3)C[C@@H]12)c1cc2ccncc2o1 [Example 61, (1R,5S,6s)-3-tetrahydro-2H-pyran-4-yl 6-(2-(furo[2,3-c]pyridine-2-carboxamido)ethyl)-3-azabicyclo[3.1.0]hexane-3-carboxylate]"
4,1 to 29,"CC1(OC(=O)N2C[C@@H]3[C@@H](CCNC(=O)c4nc5ccncc5s4)[C@@H]3C2)COC1 [Example 62, (1R,5S,6s)-3-methyloxetan-3-yl 6-(2-(thiazolo[5,4-c]pyridine-2-carboxamido)ethyl)-3-azabicyclo[3.1.0]hexane-3-carboxylate]"
5,0.01 to 0.49,"O=C(NCC[C@@H]1[C@H]2CN(C(=O)c3ccccc3)C[C@@H]12)c1ccc2nccn2c1 [Example 63, N-(2-((1R,5S,6s)-3-benzoyl-3-azabicyclo[3.1.0]hexan-6-yl)ethyl)imidazo[1,2-a]pyridine-6-carboxamide]"
6,0.01 to 0.49,"CC(C)(C)NC(=O)N1C[C@@H]2[C@@H](CCNC(=O)c3ccc4nccn4c3)[C@@H]2C1 [Example 64, N-(2-((1R,5S,6s)-3-(tert-butylcarbamoyl)-3-azabicyclo[3.1.0]hexan-6-yl)ethyl)imidazo[1,2-a]pyridine-6-carboxamide]"
7,1 to 29,"O=C(NCC[C@@H]1[C@H]2CN(C(=O)Nc3ccccc3)C[C@@H]12)c1ccc2nccn2c1 [Example 65, N-(2-((1R,5S,6s)-3-(phenylcarbamoyl)-3-azabicyclo[3.1.0]hexan-6-yl)ethyl)imidazo[1,2-a]pyridine-6-carboxamide]"
8,1 to 29,"O=C(NCC[C@@H]1[C@H]2CN(C(=O)N3CCCC3)C[C@@H]12)c1ccc2nccn2c1 [Example 66, N-(2-((1R,5S,6s)-3-(pyrrolidine-1-carbonyl)-3-azabicyclo[3.1.0]hexan-6-yl)ethyl)imidazo[1,2-a]pyridine-6-carboxamide]"
9,0.01 to 0.49,"O=C(NCC[C@@H]1[C@H]2CN(C(=O)OC3CCOCC3)C[C@@H]12)c1ccc2nccn2c1 [Example 67, (1R,5S,6s)-tetrahydro-2H-pyran-4-yl 6-(2-(imidazo[1,2-a]pyridine-6-carboxamido)ethyl)-3-azabicyclo[3.1.0]hexane-3-carboxylate]"
10,1 to 29,"O=C(NCC[C@@H]1[C@H]2CN(S(=O)(=O)C3CCOCC3)C[C@@H]12)c1ccc2nccn2c1 [Example 68, N-(2-((1R,5S,6s)-3-((tetrahydro-2H-pyran-4-yl)sulfonyl)-3-azabicyclo[3.1.0]hexan-6-yl)ethyl)imidazo[1,2-a]pyridine-6-carboxamide]"
11,0.5 to 0.99,"CC(C)(C)CNC(=O)N1C[C@@H]2[C@@H](CCNC(=O)c3cc4ccncc4o3)[C@@H]2C1 [Example 69, N-(2-((1R,5S,6s)-3-(neopentylcarbamoyl)-3-azabicyclo[3.1.0]hexan-6-yl)ethyl)furo[2,3-c]pyridine-2-carboxamide]"
12,0.01 to 0.49,"O=C(NCC[C@@H]1[C@H]2CN(C(=O)N3CCCC3)C[C@@H]12)c1cc2ccncc2o1 [Example 70, N-(2-((1R,5S,6s)-3-(pyrrolidine-1-carbonyl)-3-azabicyclo[3.1.0]hexan-6-yl)ethyl)furo[2,3-c]pyridine-2-carboxamide]"
13,0.01 to 0.49,"O=C(NCC[C@@H]1[C@H]2CN(C(=O)OC3CCCC3)C[C@@H]12)c1cc2ccncc2o1 [Example 71, (1R,5S,6s)-(cyclopentyl) 6-(2-(furo[2,3-c]pyridine-2-carboxamido)ethyl)-3-azabicyclo[3.1.0]hexane-3-carboxylate]"
14,0.01 to 0.49,"O=C(NCC[C@@H]1[C@H]2CN(S(=O)(=O)c3ccc(F)cc3)C[C@@H]12)c1cc2ccncc2o1 [Example 72, N-(2-((1R,5S,6s)-3-((4-fluorophenyl)sulfonyl)-3-azabicyclo[3.1.0]hexan-6-yl)ethyl)furo[2,3-c]pyridine-2-carboxamide]"
15,1 to 29,"O=C(NCC[C@@H]1[C@H]2CN(S(=O)(=O)C3CCOCC3)C[C@@H]12)c1cc2ccncc2o1 [Example 73, N-(2-((1R,5S,6s)-3-((tetrahydro-2H-pyran-4-yl)sulfonyl)-3-azabicyclo[3.1.0]hexan-6-yl)ethyl)furo[2,3-c]pyridine-2-carboxamide]"
16,0.01 to 0.49,"CC1(OC(=O)N2C[C@@H]3[C@@H](CCNC(=O)c4cc5cc(N)ncc5s4)[C@@H]3C2)COC1 [Example 74, (1R,5S,6s)-3-methyloxetan-3-yl 6-(2-(5-aminothieno[2,3-c]pyridine-2-carboxamido)ethyl)-3-azabicyclo[3.1.0]hexane-3-carboxylate]"
17,0.01 to 0.49,"CC(C)(C)NC(=O)N1C[C@@H]2[C@@H](CCNC(=O)/C=C/c3cccnc3)[C@@H]2C1 [Example 75, (1R,5S,6s)-N-(tert-butyl)-6-(2-((E)-3-(pyridin-3-yl)acrylamido)ethyl)-3-azabicyclo[3.1.0]hexane-3-carboxamide]"
18,0.01 to 0.49,"O=C(NCC[C@@H]1[C@H]2CN(C(=O)c3ccccc3)C[C@@H]12)c1cnc2nccn2c1 [Example 76, N-(2-((1R,5S,6s)-3-benzoyl-3-azabicyclo[3.1.0]hexan-6-yl)ethyl)imidazo[1,2-a]pyrimidine-6-carboxamide]"
19,0.01 to 0.49,"CC(C)(C)NC(=O)N1C[C@@H]2[C@@H](CCNC(=O)c3cnc4nccn4c3)[C@@H]2C1 [Example 77, N-(2-((1R,5S,6s)-3-(tert-butylcarbamoyl)-3-azabicyclo[3.1.0]hexan-6-yl)ethyl)imidazo[1,2-a]pyrimidine-6-carboxamide]"
20,0.5 to 0.99,"O=C(NCC[C@@H]1[C@H]2CN(C(=O)Nc3ccccc3)C[C@@H]12)c1cnc2nccn2c1 [Example 78, N-(2-((1R,5S,6s)-3-(phenylcarbamoyl)-3-azabicyclo[3.1.0]hexan-6-yl)ethyl)imidazo[1,2-a]pyrimidine-6-carboxamide]"
21,0.01 to 0.49,"O=C(NCC[C@@H]1[C@H]2CN(C(=O)OC3CCOCC3)C[C@@H]12)c1cnc2nccn2c1 [Example 79, (1R,5S,6s)-tetrahydro-2H-pyran-4-yl 6-(2-(imidazo[1,2-a]pyrimidine-6-carboxamido)ethyl)-3-azabicyclo[3.1.0]hexane-3-carboxylate]"
22,1 to 29,"O=C(NCC[C@@H]1[C@H]2CN(S(=O)(=O)C3CCOCC3)C[C@@H]12)c1cnc2nccn2c1 [Example 80, N-(2-((1R,5S,6s)-3-((tetrahydro-2H-pyran-4-yl)sulfonyl)-3-azabicyclo[3.1.0]hexan-6-yl)ethyl)imidazo[1,2-a]pyrimidine-6-carboxamide]"
23,< 0.01,"CC(C)(C)NC(=O)N1C[C@@H]2[C@@H](CCNC(=O)c3cc(-c4cccnc4)on3)[C@@H]2C1 [Example 81, N-(2-((1R,5S,6s)-3-(tert-butylcarbamoyl)-3-azabicyclo[3.1.0]hexan-6-yl)ethyl)-5-(pyridin-3-yl)isoxazole-3-carboxamide]"
24,0.01 to 0.49,"CC(C)(C)NC(=O)N1C[C@@H]2[C@@H](CCNC(=O)c3cc4cnccc4[nH]3)[C@@H]2C1 [Example 82, N(2-((1R,5S,6s)-3-(tert-butylcarbamoyl)-3-azabicyclo[3.1.0]hexan-6-yl)ethyl)-1H-pyrrolo[3,2-c]pyridine-2-carboxamide]"
25,0.01 to 0.49,"O=C(NCC[C@@H]1[C@H]2CN(C(=O)OC3CCOCC3)C[C@@H]12)c1cc2cnccc2[nH]1 [Example 83, (1R,5S,6s)-tetrahydro-2H-pyran-4-yl 6-(2-(1H-pyrrolo[3,2-c]pyridine-2-carboxamido)ethyl)-3-azabicyclo[3.1.0]hexane-3-carboxylate]"
26,0.5 to 0.99,"O=C(NCC[C@@H]1[C@H]2CN(S(=O)(=O)C3CCOCC3)C[C@@H]12)c1cc2cnccc2[nH]1 [Example 84, N-(2-((1R,5S,6s)-3-((tetrahydro-2H-pyran-4-yl)sulfonyl)-3-azabicyclo[3.1.0]hexan-6-yl)ethyl)-1H-pyrrolo[3,2-c]pyridine-2-carboxamide]"
27,0.01 to 0.49,"Nc1ccc(/C=C/C(=O)NCC[C@@H]2[C@H]3CN(C(=O)c4ccc(F)cc4)C[C@@H]23)cn1 [Example 86, (E)-3-(6-aminopyridin-3-yl)-N-(2-((1R,5S,6s)-3-(4-fluorobenzoyl)-3-azabicyclo[3.1.0]hexan-6-yl)ethyl)acrylamide]"
28,0.01 to 0.49,"Cc1nc(C)c(C(=O)N2C[C@@H]3[C@@H](CCNC(=O)/C=C/c4ccc(N)nc4)[C@@H]3C2)o1 [Example 87, (E)-3-(6-aminopyridin-3-yl)-N-(2-((1R,5S,6s)-3-(2,4-dimethyloxazole-5-carbonyl)-3-azabicyclo[3.1.0]hexan-6-yl)ethyl)acrylamide]"
29,0.01 to 0.49,"Cc1nn(C)c(C)c1C(=O)N1C[C@@H]2[C@@H](CCNC(=O)/C=C/c3ccc(N)nc3)[C@@H]2C1 [Example 88, (E)-3-(6-aminopyridin-3-yl)-N-(2-((1R,5S,6s)-3-(1,3,5-trimethyl-1H-pyrazole-4-carbonyl)-3-azabicyclo[3.1.0]hexan-6-yl)ethyl)acrylamide]"
30,0.01 to 0.49,"Nc1ccc(/C=C/C(=O)NCC[C@@H]2[C@H]3CN(C(=O)c4cccc(F)c4)C[C@@H]23)cn1 [Example 89, (E)-3-(6-aminopyridin-3-yl)-N-(2-((1R,5S,6s)-3-(3-fluorobenzoyl)-3-azabicyclo[3.1.0]hexan-6-yl)ethyl)acrylamide]"

# Same assay, conditions: [HDB]; read-out: NAMPT IC50 (μM) [HDB]
row,IC50 [µM],SMILES
1,0.01 to 0.49,"O=C(NCC[C@@H]1[C@H]2CN(C(=O)OC3CCOCC3)C[C@@H]12)c1cc2ccncc2s1 [Example 85, (1R,5S,6s)-tetrahydro-2H-pyran-4-yl 6-(2-(thieno[2,3-c]pyridine-2-carboxamido)ethyl)-3-azabicyclo[3.1.0]hexane-3-carboxylate]"
